Entries after “also recorded” stand apart in the source; their conditions may differ.
How the values were obtained:
GST-XD4 [1] = biological target: T1, GST-XD4 (Rous sarcoma virus subgroup A, UniProt P00524, DEL77-225); assay type: biochemical
T1 construct: contains an intact SH1 catalytic domain but lacks the non-catalytic regulatory SH3 and SH2 domains; made in house; host or cells: E. coli DH5α (pGEX-KT)
Experimental: (§1) Kinetic constants were determined by analysis of Lineweaver-Burk plots of the rate data (64). […] ATP (1000 cpm/pmol) or [γ-^32P] N^6(cyclopentyl)ATP (5000 cpm/pmol) as indicated.

GST-XD4 (V323A, I338A) [2] = biological target: T2, GST-XD4 (V323A, I338A) (Rous sarcoma virus subgroup A, UniProt P00524, DEL77-225/I338A/V323A); assay type: biochemical; settings: GST-XD4 (V323A, I338A), 1 mM RR-Src, 37° C., pH 8.0
T2 construct: contains an intact SH1 catalytic domain but lacks the non-catalytic regulatory SH3 and SH2 domains; made in house; host or cells: E. coli DH5α (pGEX-KT)
Experimental: as §1

GST-XD4 (V323A, I338A) [3] = assay type: biochemical, Rous sarcoma virus
Experimental: as §1

GST-XD4 (I338A) = biological target: T3, GST-XD4 (I338A) (Rous sarcoma virus subgroup A, UniProt P00524, DEL77-225/I338A); assay: Autophosphorylation of single mutation v-Src mutants; assay type: biochemical; settings: mutant with alanine at position 338
T3 construct: made in house
Source text: (§2) However, these had only single mutations, at position 338. These were again expressed as GST-XD4 fusion proteins.
(§3) The panels on the right side of FIG. 7 tell an even more interesting story.

[4] = system: tyrosine kinases of murine lymphocyte cell lysate (CF); assay: Screening of nucleotide analogs in murine lymphocyte lysate, anti-phosphotyrosine immunoblot; assay type: biochemical; settings: 100 μM nucleotide triphosphate, 37° C., five minutes
Experimental: To identify compounds that would not be accepted as substrates by any existing cellular kinases (53), Applicant screened a panel of synthetic A^*TP analogs in a murine lymphocyte lysate (CF) rich in protein tyrosine kinases (13).
The assays were performed using spleenocytes (8-30 week old male and female C57/B6 mice from the Princeton University Animal Facility) which were isolated and washed in RPMI-1640 medium containing 5% Bovine Calf Serum (BCS), 1% Hepes and DNaseI (1 μg/ml). Red cells were lysed at 4° C. by treatment with 17 mM Tris ammonium chloride (pH 7.2). The cells were hypotonically lysed on ice for ten minutes in 1 mM Hepes (pH 7.4), 5 mM MgCl2, leupeptin (10 μg/ml), aprotinin (10 μg /ml) and 100 μM PMSF according to the method of Fukazawa et al. (51). After vortexing and centrifugation at 500 × g, the supernatant was collected. Cells were stored at 4° C. for twenty minutes to attenuate the basal protein phosphorylation level, after which the buffer was adjusted to 20 mM Hepes (pH 7.4), 10 mM MgCl2 and 1 mM NaF. Sodium vanadate (100 μM) was then added to inhibit the activity of phosphotyrosine phosphatases.
Each nucleotide triphosphate was added to a final concentration of 100 μM to 5×10^6 cell equivalents and incubated at 37° C. for five minutes after which 4 × Laemmli gel loading buffer was added to the cell lysate to quench the reaction. Proteins were separated by 12.5% SDS-PAGE and transferred to Protran BA85 (Schleicher-Schuell). The blot was probed with the anti-phosphotyrosine monoclonal antibody 4G10 (Upstate Biotechnology) and the bound antibody was detected via enhanced chemiluminescence (Pierce) following treatment with HRP-coupled goat anti-mouse antibody (VWR catalog #710133) according to the manufacturer's instructions.
The cell lysate used includes the tyrosine kinases Src, Fyn, Lck, Lyn, Yes, Fgr, Hck, Zap, Syk, Btk, Blk, and other tyrosine kinases present in B and T lymphocytes, macrophages, and follicular dendritic cells (13). Molecular size standards (in kilodaltons) arc indicated.

I338G v-Src = biological target: T4, I338G v-Src (Rous sarcoma virus subgroup A, UniProt P00524, DEL77-225/I338G); assay: biochemical
T4 construct: made in house; host or cells: E. coli DH5α (pGEX-KT)

WT Fyn [5] = biological target: T5, WT Fyn (Homo sapiens, UniProt P06241); assay: In vitro kinase inhibition assay; assay type: biochemical; design: inhibition of Fyn: dose or concentration left out as unconfirmed
T5 construct: GST; made in house; host or cells: E. coli DH5α (pGEX-KT)

GST-XD4 (V323A, I338A) [6] = settings: 100 μM analog, 10 μM [γ-32P]ATP
GST-XD4 [7] = biological target: T1, GST-XD4; assay: Autophosphorylation autoradiogram; assay type: biochemical; settings: GST-XD4, FIG. 5C lane 3
Source text: (§4) It is even more significant that the new substrate, [γ-^32P]

GST-XD4 (V323A, I338A) [8] = biological target: T2, GST-XD4 (V323A, I338A); assay: Autophosphorylation autoradiogram; assay type: biochemical; settings: FIG. 5C lane 4
Source text: as §4

[9] = system: wild-type cellular kinases of murine lymphocyte lysates; assay: In vitro kinase reactions with radiolabeled nucleotide in murine lymphocyte lysates; assay type: biochemical; settings: 100 μM radiolabeled nucleotide, 37° C., ten minutes
GST-XD4 (I338G) = biological target: T6, GST-XD4 (I338G) (Rous sarcoma virus subgroup A, UniProt P00524, DEL77-225/I338G); assay: Autophosphorylation of single mutation v-Src mutants; assay type: biochemical; settings: mutant with glycine at position 338
T6 construct: made in house; host or cells: E. coli DH5α (pGEX-KT)
Source text: as §2, §3

GST-XD4 (I338S) = biological target: T7, GST-XD4 (I338S) (Rous sarcoma virus subgroup A, UniProt P00524, DEL77-225/I338S); assay: as above; assay type: biochemical; settings: mutant with serine at position 338
T7 construct: made in house
Source text: as §2, §3

PDGFR = settings: cited from earlier work
WT Fyn [10] = biological target: T5, WT Fyn; settings: published parent molecule; cited from earlier work

T5 sequence (P06241 1-534 isoform P06241-2): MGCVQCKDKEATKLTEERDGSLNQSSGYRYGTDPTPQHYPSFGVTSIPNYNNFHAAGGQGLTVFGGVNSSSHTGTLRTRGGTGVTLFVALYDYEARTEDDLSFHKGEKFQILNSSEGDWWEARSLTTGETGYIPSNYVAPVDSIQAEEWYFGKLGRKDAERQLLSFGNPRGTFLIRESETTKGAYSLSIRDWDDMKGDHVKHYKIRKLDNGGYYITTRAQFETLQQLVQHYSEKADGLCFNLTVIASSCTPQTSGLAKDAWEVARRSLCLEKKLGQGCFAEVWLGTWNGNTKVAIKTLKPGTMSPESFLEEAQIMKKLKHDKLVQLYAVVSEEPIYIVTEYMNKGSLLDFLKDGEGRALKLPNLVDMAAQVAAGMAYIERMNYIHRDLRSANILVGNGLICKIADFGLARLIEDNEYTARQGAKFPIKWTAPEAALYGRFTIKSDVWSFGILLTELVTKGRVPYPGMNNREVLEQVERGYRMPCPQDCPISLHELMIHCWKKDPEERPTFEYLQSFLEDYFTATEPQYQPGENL

## Nc1ncnc2c1ncn2[C@@H]1O[C@H](COP(=O)(O)OP(=O)(O)OP(=O)(O)O)[C@@H](O)[C@H]1O [ATP, adenosine triphosphate, reference compound]
GST-XD4 [1]; GST-XD4, 1 mM RR-Src, 37° C., pH 8.0
  kcat: 2 ± 0.5 min⁻¹
GST-XD4 (V323A, I338A) [2]
  kcat: 0.8 ± 0.2 min⁻¹
GST-XD4 (V323A, I338A) [3]; higher in mutant
  KM of the mutant for ATP relative to KM of GST-XD4 for ATP: more than 10 fold
GST-XD4 (I338A)
  utilization as phosphate donor substrate (autophosphorylation): more readily than the mutant with serine; also recorded: better able to use ATP as a substrate than is the mutant with glycine

## CONc1ncnc2c1ncn2[C@@H]1O[C@H](COP(=O)(O)OP(=O)(O)OP(=O)(O)O)[C@@H](O)[C@H]1O [Analog 1, N^6(methoxy)ATP]
[4]
  level of protein tyrosine phosphorylation (ability to serve as cellular tyrosine kinase substrate): some ability to serve as cellular tyrosine kinase substrates

## CCONc1ncnc2c1ncn2[C@@H]1O[C@H](COP(=O)(O)OP(=O)(O)OP(=O)(O)O)[C@@H](O)[C@H]1O [Analog 2, N^6(ethoxy)ATP]
[4]
  level of protein tyrosine phosphorylation (ability to serve as cellular tyrosine kinase substrate): some ability to serve as cellular tyrosine kinase substrates

## CC(=O)Nc1ncnc2c1ncn2[C@@H]1O[C@H](COP(=O)(O)OP(=O)(O)OP(=O)(O)O)[C@@H](O)[C@H]1O [Analog 3, N^6(acetyl)ATP]
[4]
  level of protein tyrosine phosphorylation (ability to serve as cellular tyrosine kinase substrate): some ability to serve as cellular tyrosine kinase substrates

## CC(C)ONc1ncnc2c1ncn2[C@@H]1O[C@H](COP(=O)(O)OP(=O)(O)OP(=O)(O)O)[C@@H](O)[C@H]1O [Analog 4, N^6(i-propoxy)ATP]
[4]
  level of protein tyrosine phosphorylation (ability to serve as cellular tyrosine kinase substrate): little or no protein phosphorylation

## CC(C)(C)n1nc(-c2ccccc2)c2c(NCC3CCCC3)ncnc21 [Analog 4b, 4-cyclopentylmethylamino-1-tert-butyl-3-phenylpyrazolo[3,4-d]pyrimidine]
I338G v-Src
  inhibition of I338G v-Src (in words): only poor to moderate inhibition
WT Fyn [5]
  inhibition of WT Fyn (in words): sufficiently orthogonal

## CC(C)(C)n1nc(-c2ccccc2)c2c(NCc3ccco3)ncnc21 [Analog 4d, 4-2′-furylmethylamino-1-tert-butyl-3-phenylpyrazolol[3,4-d]pyrimidine]
I338G v-Src
  inhibition of I338G v-Src (in words): only poor to moderate inhibition
WT Fyn [5]
  inhibition of WT Fyn (in words): sufficiently orthogonal

## CC(C)(C)n1nc(-c2ccccc2)c2c(NCc3ccccc3)ncnc21 [Analog 4e, 4-benzylamino-1-tert-buty-3-phenylpyrazolo[3,4-d]pyrimidine]
I338G v-Src
  inhibition of I338G v-Src (in words): only poor to moderate inhibition
WT Fyn [5]
  inhibition of WT Fyn (in words): sufficiently orthogonal

## O=P(O)(O)OP(=O)(O)OP(=O)(O)OC[C@H]1O[C@@H](n2cnc3c(NCc4ccccc4)ncnc32)[C@H](O)[C@@H]1O [Analog 5, N^6(benzyl)ATP]
[4]
  level of protein tyrosine phosphorylation (ability to serve as cellular tyrosine kinase substrate): little or no protein phosphorylation
GST-XD4 (V323A, I338A) [6]
  relative inhibition of GST-XD4 (V323A, I338A) catalyzed RR-Src phosphorylation: almost as well as the wild-type kinase

## O=P(O)(O)OP(=O)(O)OP(=O)(O)OC[C@H]1O[C@@H](n2cnc3c(NOCc4ccccc4)ncnc32)[C@H](O)[C@@H]1O [Analog 6, N^6(benzyloxy)ATP]
[4]
  level of protein tyrosine phosphorylation (ability to serve as cellular tyrosine kinase substrate): little or no protein phosphorylation

## O=P(O)(O)OP(=O)(O)OP(=O)(O)OCC1OC(n2cnc3c(NC4CCCC4)ncnc32)C(O)C1O (centres unmarked) [Analog 8, N^6(cyclopentyl)ATP]
[4]
  level of protein tyrosine phosphorylation (ability to serve as cellular tyrosine kinase substrate): slightly lower level of phosphorylation with wild-type kinases
GST-XD4 [1]; wild-type GST-XD4
  phosphorylation of RR-Src peptide with the nucleotide as phosphate donor: did not substantially phosphorylate
GST-XD4 (V323A, I338A) [2]
  kcat: 0.05 ± 0.02 min⁻¹
GST-XD4 (V323A, I338A) [3]; lower than wild-type with ATP
  kcat/KM of mutant with orthogonal substrate relative to kcat/KM of wild-type kinase with ATP: 50 fold
GST-XD4 [7]
  use as phosphodonor for autophosphorylation: apparent complete inability
GST-XD4 (V323A, I338A) [8]
  use as phosphodonor for autophosphorylation: efficiently autophosphorylated
[9]
  radiolabeled phosphoproteins in cell lysate: no radiolabeled phosphoproteins
GST-XD4 (I338G)
  utilization as phosphate donor substrate (autophosphorylation): better able to use N^6(cyclopentyl)ATP as substrate than is the mutant with alanine
GST-XD4 (I338S)
  utilization as phosphate donor substrate (autophosphorylation): not able to utilize N6(cyclopentyl)ATP nearly as well as is the mutant with alanine
GST-XD4 (V323A, I338A) [6]
  relative inhibition of GST-XD4 (V323A, I338A) catalyzed RR-Src phosphorylation: almost as well as the wild-type kinase

## O=P(O)(O)OP(=O)(O)OP(=O)(O)OC[C@H]1O[C@@H](n2cnc3c(NOC4CCCC4)ncnc32)[C@H](O)[C@@H]1O [Analog 9, N^6(cyclopentyloxy)ATP]
GST-XD4 (V323A, I338A) [6]
  relative inhibition of GST-XD4 (V323A, I338A) catalyzed RR-Src phosphorylation: almost as well as the wild-type kinase

## O=P(O)(O)OP(=O)(O)OP(=O)(O)OC[C@H]1O[C@@H](n2cnc3c(NC4CCCCC4)ncnc32)[C@H](O)[C@@H]1O [Analog 11, N^6(cyclohexyl)ATP]
GST-XD4 (V323A, I338A) [6]
  relative inhibition of GST-XD4 (V323A, I338A) catalyzed RR-Src phosphorylation: almost as well as the wild-type kinase

## OCC1OC(n2cnc3c(NOC4CCCC4)ncnc32)C(O)C1O (centres unmarked) [N^6 cyclopentyloxyadenosine]
WT Fyn [5]; concentrations up
  inhibition of Fyn: no detectable in vitro inhibition

## Cc1ccc(-c2nn(C(C)(C)C)c3ncnc(N)c23)cc1 [PPI, 4-amino-1-tert-butyl-3-(p-methylphenyl)pyrazolo(3,4-d)pyrimidine]
WT Fyn [10]
  inhibition of Fyn (in words): highly potent (low nM)
